{"source": "paper PMC10159843", "about": "“Babesia duncani multi-omics identifies virulence factors and drug targets” (Nature Microbiology, 2023)", "key": {"[1]": {"test_system": "B. duncani", "details": "continuous in vitro culture in human erythrocytes; cited from earlier work"}, "[2]": {"molecular_target": "B. duncani DHFR-TS (Babesia duncani, UniProt A0AAD9UQZ8)", "sequence (A0AAD9UQZ8 1-514)": "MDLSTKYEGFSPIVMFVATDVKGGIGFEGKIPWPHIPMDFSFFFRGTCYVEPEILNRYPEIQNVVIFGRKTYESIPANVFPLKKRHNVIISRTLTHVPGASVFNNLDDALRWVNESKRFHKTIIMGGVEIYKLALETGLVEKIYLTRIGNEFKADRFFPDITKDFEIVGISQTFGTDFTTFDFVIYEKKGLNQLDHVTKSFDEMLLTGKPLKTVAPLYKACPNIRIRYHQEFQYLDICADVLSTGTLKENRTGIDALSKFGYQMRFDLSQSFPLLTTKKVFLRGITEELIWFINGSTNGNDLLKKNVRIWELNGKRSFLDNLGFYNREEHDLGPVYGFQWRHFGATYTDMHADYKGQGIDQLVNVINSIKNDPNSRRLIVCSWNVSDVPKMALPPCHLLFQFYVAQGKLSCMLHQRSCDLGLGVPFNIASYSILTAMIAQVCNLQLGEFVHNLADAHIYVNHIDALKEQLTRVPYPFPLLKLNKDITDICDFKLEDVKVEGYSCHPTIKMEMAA", "format": "biochemical"}, "[3]": {"molecular_target": "B. microti DHFR-TS (Babesia microti, UniProt A0A1R4AAV1)", "sequence (A0A1R4AAV1 1-502)": "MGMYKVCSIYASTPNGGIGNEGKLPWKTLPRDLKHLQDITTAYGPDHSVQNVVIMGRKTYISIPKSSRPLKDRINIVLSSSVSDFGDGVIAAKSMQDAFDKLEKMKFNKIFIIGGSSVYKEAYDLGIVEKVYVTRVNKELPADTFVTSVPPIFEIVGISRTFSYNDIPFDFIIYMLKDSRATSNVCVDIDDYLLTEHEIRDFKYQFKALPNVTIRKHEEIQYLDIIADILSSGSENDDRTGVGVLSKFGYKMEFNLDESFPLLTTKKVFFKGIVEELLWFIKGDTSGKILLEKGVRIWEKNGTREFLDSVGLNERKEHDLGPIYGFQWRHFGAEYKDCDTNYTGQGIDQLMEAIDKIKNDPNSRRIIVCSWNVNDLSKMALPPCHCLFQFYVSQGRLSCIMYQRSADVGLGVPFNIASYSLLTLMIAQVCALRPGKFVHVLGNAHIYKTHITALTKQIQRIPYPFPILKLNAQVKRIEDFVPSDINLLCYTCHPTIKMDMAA", "format": "biochemical"}, "[4]": {"test_system": "B. duncani", "assay": "microbe, parasite or virus in culture", "format": "cell-based, Babesia duncani"}, "[5]": {"test_system": "HeLa", "assay": "MTT cytotoxicity on HeLa cells", "format": "cell-based, human", "details": "72 h, read-out: HeLa LC50", "experimental": "(§1) HeLa, HepG2, HEK and HCT116 cell lines were obtained from the American Type Culture Collection and maintained in Dulbecco’s modified Eagle’s medium (Invitrogen 11995-065) containing 25 mM glucose, 1 mM sodium pyruvate and supplemented with 5 mM HEPES, 10% FBS and penicillin-streptomycin (50 U ml^−1 penicillin, 50 µg ml^−1 streptomycin). An estimated 20,000 cells per well were seeded in a 96-well tissue culture plate and allowed to adhere. After 24 h, cells were treated with either vehicle alone (0.1% dimethylsulfoxide) or vehicle containing different concentrations of the target drugs using a 2-fold serial dilution starting at 10 mM. Dimethylsulfoxide at 10% was used as a positive control. Cells were incubated at 37 °C for 72 h, after which each well was incubated with 0.5 mg ml^−1 of MTT reagent (Cayman Chemical, 10009591) for 4 h in the dark at 37 °C. Following addition of 100 µl dimethylsulfoxide to each well, absorbance was measured at optical density (OD)590 nm using Spectra max plate reader. From the obtained OD values, percent cell viability was calculated by normalizing to the mean of 10% dimethylsulfoxide wells (set as 100% toxicity) and the mean of the vehicle control wells (set as 0% toxicity). Dose-response curves were plotted using GraphPad Prism v9.1.2"}, "[6]": {"test_system": "HepG2", "assay": "MTT cytotoxicity on HepG2 cells", "format": "cell-based, human", "details": "72 h, read-out: HepG2 LC50", "experimental": "as §1"}, "[7]": {"test_system": "HEK293", "assay": "MTT cytotoxicity on HEK293 cells", "format": "cell-based, human", "details": "72 h, read-out: HEK293 LC50", "experimental": "as §1"}, "[8]": {"test_system": "HCT116", "assay": "MTT cytotoxicity on HCT116 cells", "format": "cell-based, human", "details": "72 h, read-out: HCT LC50", "experimental": "as §1"}, "[9]": {"test_system": "human cell lines", "assay": "In vitro therapeutic index of antifolates against human cell lines", "format": "cell-based", "details": "human cell lines versus B. duncani IC50", "experimental": "Drug efficacy against B. duncani in vitro was determined using the SYBR Green assay as previously described. Briefly, a culture of B. duncani-infected human erythrocytes at 0.1% parasitemia and 5% haematocrit was maintained for 60 h in vitro in a 96-well plate in the absence or presence of varying concentrations of the drug of interest at concentrations ranging between 0.6 nM and 10 µM. An equal volume of lysis buffer (0.008% saponin, 0.08% Triton X-100, 20 mM Tris-HCl (pH 7.5) and 5 mM EDTA) containing SYBR Green-I (0.01%) was added to each well and the plate incubated at 37 °C for 1 h in the dark. Fluorescence counts in each well were measured at 480 nm (excitation) and 540 nm (emission) using a BioTek Synergy Mx microplate reader and background fluorescence from control wells containing uninfected RBCs was subtracted. A dose-response curve representing the fluorescence counts against the logarithm of the drug concentration was fitted by nonlinear regression and used to determine the IC50 of each drug. Analysis was conducted using GraphPad Prism 9.2.1. For each drug, two independent experiments, each with biological triplicates, were conducted. Data are shown as mean ± s.d. […]"}, "[10]": {"test_system": "BdDHFR-TS", "assay": "Inhibition of DHFR enzymatic activity of recombinant BdDHFR-TS", "format": "biochemical, B. duncani", "details": "0.1 μM enzyme, 300 μM DHF, 300 μM NADPH", "experimental": "(§2) The IC50 was determined from a sigmoidal dose-response curve using GraphPad Prism v9.1.2. […]\n(§3) denatured (2 X 20 min in 0.5N NaOH; 1.5 M NaCl) and neutralized (2 X 20 min in 0.5 M Tris-HCl, pH 7.5; 1.5 M NaCl). Southern blotting was done on nylon membrane, positively charged\n(§4) (Cat. No. 1417240, Roche) using 10X SSC and followed by UV crosslinking of transferred DNA.\n(§5) The membrane was hybridized overnight at 26 °C with the telomere probe and then washed twice for 5 min each in 2X SSC and for 20 min each in 0.5X SSC at 26°C. Bound probe was detected with disodium-2-chloro-5(4 methoxyspiro (1,2-dioxetane-3.2´-[5-chloro]tricycle[3.3.1.1.3.7] decan)-4-yl)-1-phenyl phosphate (CDP-StarTM, Cat. No.12041677001, Roche) according to the manufacturer’s instructions. The membrane was visualized using an Amersham ImageQuant 800 system (GE Healthcare Bio-Science AB, Uppsala, Sweden).\n(§6) Cloning, Expression, and Purification of recombinant B. duncani and B. microti DHFR-TS […]\n(§7) duncani (BdDHFR-TS) and B. microti (BmDHFR-TS) were cloned into pMAL-c4x by GenScript USA Inc. Both enzymes were expressed as fusion proteins with N’-terminal maltose-binding protein (MBP) tag. Constructs of pMAL-c4x-BdDHFR-TS and pMAL-c4x-BmDHFR-TS were transformed by heat shock into E. coli BL-21(DE3). E. coli BL-21(DE3) harboring pMAL-c4x-DHFR-TS was grown overnight in 2 ml LB ampicillin (100 µg/mL). […]"}, "[11]": {"test_system": "BmDHFR-TS", "assay": "Inhibition of DHFR enzymatic activity of recombinant BmDHFR-TS", "format": "biochemical, B. microti", "details": "0.1 μM enzyme, 300 μM DHF, 300 μM NADPH", "experimental": "as §2, §3, §4, §5, §6, §7"}, "[12]": {"assay": "MTT cytotoxicity on HeLa cells", "format": "cell-based, human", "details": "human, HeLa cells, read-out: HeLa LC50", "experimental": "as §1"}, "[13]": {"assay": "MTT cytotoxicity on HepG2 cells", "format": "cell-based, human", "details": "human, HepG2 cells, read-out: HepG2 LC50", "experimental": "as §1"}, "[14]": {"assay": "MTT cytotoxicity on HEK293 cells", "format": "cell-based, human", "details": "human, HEK293 cells, read-out: HEK293 LC50", "experimental": "as §1"}, "[15]": {"assay": "MTT cytotoxicity on HCT116 cells", "format": "cell-based, human", "details": "human, HCT116 cells, read-out: HCT LC50", "experimental": "as §1"}}, "note": "Where two headings read alike, the source gives them in different places.", "data": [{"smiles": "C=C[C@H]1C[N@@]2CC[C@H]1C[C@H]2[C@H](O)c1ccnc2ccc(OC)cc12", "note": "[quinine]", "values": [{"measurement": "susceptibility of B. duncani", "setting": "[1]", "value": "low susceptibility"}]}, {"smiles": "NC(=O)C1=CN([C@@H]2O[C@H](COP(=O)(O)OP(=O)(O)OC[C@H]3O[C@@H](n4cnc5c(N)ncnc54)[C@H](OP(=O)(O)O)[C@@H]3O)[C@@H](O)[C@H]2O)C=CC1", "note": "[NADPH]", "values": [{"measurement": "Vmax", "setting": "[2]", "value": "9.8 ± 2.1", "unit": "μmol · min^-1 ×10^4"}, {"measurement": "kcat", "setting": "[2]", "value": "0.4 ± 0.1", "unit": "s⁻¹"}, {"measurement": "Km", "setting": "[2]; complementary ligand at 300 μM", "value": "32.9 ± 1", "unit": "µM"}, {"measurement": "Vmax", "setting": "[3]", "value": "10.1 ± 1.6", "unit": "μmol · min^-1 ×10^4"}, {"measurement": "kcat", "setting": "[3]", "value": "1.7 ± 0.3", "unit": "s⁻¹"}, {"measurement": "Km", "setting": "[3]; complementary ligand at 300 μM", "value": "27.3 ± 0.2", "unit": "µM"}]}, {"smiles": "O=C1C(O)=C([C@H]2CC[C@H](c3ccc(Cl)cc3)CC2)C(=O)c2ccccc21", "note": "[Atovaquone]", "values": [{"measurement": "IC50", "setting": "[4]; Babesia duncani, Erythrocyte, read-out: IC50 of atovaquone, parental isolate WA1", "value": 0.072, "unit": "µM"}, {"measurement": "susceptibility of B. duncani", "setting": "[1]", "value": "low susceptibility"}]}, {"smiles": "CC1(C)N=C(N)N=C(N)N1OCCCOc1cc(Cl)c(Cl)cc1Cl", "note": "[WR-99210]", "values": [{"measurement": "IC50", "setting": "[4]; read-out: B. duncani IC50", "value": 0.00058, "unit": "µM"}, {"measurement": "CC50", "setting": "[5]", "value": "> 900", "unit": "µM"}, {"measurement": "CC50", "setting": "[6]", "value": 1100, "unit": "µM"}, {"measurement": "CC50", "setting": "[7]", "value": 1000, "unit": "µM"}, {"measurement": "CC50", "setting": "[8]", "value": 1050, "unit": "µM"}, {"measurement": "TI (therapeutic index)", "setting": "[9]", "value": ">15", "unit": "K"}, {"measurement": "IC50", "setting": "[10]", "value": 0.0039, "unit": "µM"}, {"measurement": "IC50", "setting": "[11]", "value": 0.0068, "unit": "µM"}]}, {"smiles": "CCC[C@@H]1C[C@@H](C(=O)N[C@@H]([C@H]2O[C@H](SC)[C@H](O)[C@@H](O)[C@H]2O)[C@H](C)Cl)N(C)C1", "note": "[clindamycin]", "values": [{"measurement": "susceptibility of B. duncani", "setting": "[1]", "value": "low susceptibility"}]}, {"smiles": "CCc1nc(N)nc(N)c1-c1ccc(Cl)cc1", "note": "[Pyrimethamine]", "values": [{"measurement": "IC50", "setting": "[4]; Babesia duncani, Erythrocyte, 60 h, read-out: B. duncani IC50", "value": "0.94 ± 0.017", "unit": "µM"}, {"measurement": "CC50 at 72 h", "setting": "[12]", "value": "> 900", "unit": "µM"}, {"measurement": "CC50 at 72 h", "setting": "[13]", "value": 1690, "unit": "µM"}, {"measurement": "CC50 at 72 h", "setting": "[14]", "value": 500, "unit": "µM"}, {"measurement": "CC50 at 72 h", "setting": "[15]", "value": "> 30", "unit": "µM"}]}, {"smiles": "CC[C@H]1OC(=O)[C@H](C)[C@@H](O[C@H]2C[C@@](C)(OC)[C@@H](O)[C@H](C)O2)[C@H](C)[C@@H](O[C@@H]2O[C@H](C)C[C@H](N(C)C)[C@H]2O)[C@](C)(O)C[C@@H](C)CN(C)[C@H](C)[C@@H](O)[C@]1(C)O", "note": "[azithromycin]", "values": [{"measurement": "susceptibility of B. duncani", "setting": "[1]", "value": "low susceptibility"}]}]}
